Measurements: PubChem BioAssay (NCI)
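Exposure lasted 48 hours, with cells grown in 96-well plates and compounds tested at five concentrations. TGI is the concentration that stops growth completely.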

Experiments:
Assay in all cases: growth of human tumour cells (NCI), 48 h
PC-3 prostate = system: PC-3 prostate
MALME-3M melanoma = system: MALME-3M melanoma
OVCAR-3 ovarian = system: OVCAR-3 ovarian
BT-549 breast = system: BT-549 breast
OVCAR-4 ovarian = system: OVCAR-4 ovarian
MDA-N = system: MDA-N
SF-295 CNS = system: SF-295 CNS
HL-60(TB) leukemia = system: HL-60(TB) leukemia
MDA-MB-435 = system: MDA-MB-435
NCI-H460 lung = system: NCI-H460 lung
DU-145 prostate = system: DU-145 prostate
SF-539 CNS = system: SF-539 CNS
786-0 renal = system: 786-0 renal
TK-10 renal = system: TK-10 renal
MOLT-4 leukemia = system: MOLT-4 leukemia
OVCAR-5 ovarian = system: OVCAR-5 ovarian
K-562 leukemia = system: K-562 leukemia
RXF 393 renal = system: RXF 393 renal
A498 renal = system: A498 renal

## O=C1C=C(Sc2ccccc2)c2nccc3c2c1nc1ccccc13
PC-3 prostate
  TGI: 26.2 µM
MALME-3M melanoma
  TGI: 30 µM
OVCAR-3 ovarian
  TGI: 19.7 µM
BT-549 breast
  TGI: 31.4 µM
OVCAR-4 ovarian
  TGI: 31.4 µM
MDA-N
  TGI: 33.3 µM
SF-295 CNS
  TGI: > 100 µM
HL-60(TB) leukemia
  TGI: 4.29 µM
MDA-MB-435
  TGI: 31.2 µM
NCI-H460 lung
  TGI: 84.5 µM
DU-145 prostate
  TGI: > 100 µM
SF-539 CNS
  TGI: 31.1 µM
786-0 renal
  TGI: 49.6 µM
TK-10 renal
  TGI: > 100 µM
MOLT-4 leukemia
  TGI: 23.5 µM
OVCAR-5 ovarian
  TGI: > 100 µM

## N#Cc1c(Cl)cccc1Oc1ccc(S(=O)(=O)/N=C(\NN)Nc2ccc(Cl)cc2)cc1
K-562 leukemia
  TGI: > 100 µM
PC-3 prostate
  TGI: 80.8 µM
OVCAR-3 ovarian
  TGI: 40.2 µM
BT-549 breast
  TGI: 67.8 µM
OVCAR-4 ovarian
  TGI: 71 µM
MDA-N
  TGI: 66.4 µM
RXF 393 renal
  TGI: 47.1 µM
SF-295 CNS
  TGI: 70.3 µM
HL-60(TB) leukemia
  TGI: 47.7 µM
NCI-H460 lung
  TGI: 43.7 µM
DU-145 prostate
  TGI: 86.9 µM
SF-539 CNS
  TGI: 36.6 µM
A498 renal
  TGI: > 100 µM
786-0 renal
  TGI: 61.1 µM
TK-10 renal
  TGI: 79.6 µM
MOLT-4 leukemia
  TGI: 34.4 µM
OVCAR-5 ovarian
  TGI: 94.5 µM

## NC(=S)N/N=C(\Cc1nc2ccc(Cl)cc2[nH]c1=O)C(=O)Nc1ccc(Cl)cc1
PC-3 prostate
  TGI: > 100 µM
OVCAR-3 ovarian
  TGI: > 100 µM
BT-549 breast
  TGI: > 100 µM
OVCAR-4 ovarian
  TGI: > 100 µM
RXF 393 renal
  TGI: > 100 µM
SF-295 CNS
  TGI: > 100 µM
HL-60(TB) leukemia
  TGI: > 100 µM
MDA-MB-435
  TGI: > 100 µM
NCI-H460 lung
  TGI: > 100 µM
DU-145 prostate
  TGI: > 100 µM
SF-539 CNS
  TGI: > 100 µM
786-0 renal
  TGI: > 100 µM
TK-10 renal
  TGI: > 100 µM
MOLT-4 leukemia
  TGI: > 100 µM
OVCAR-5 ovarian
  TGI: > 100 µM

## CC(=O)O[C@H]1C(=O)[C@@]2(C)[C@H]([C@H](OC(=O)c3cccc(C(F)(F)F)c3)[C@]3(O)C[C@H](OC(=O)[C@H](O)[C@@H](NC(=O)c4ccccc4)c4ccccc4)C(C)=C1C3(C)C)[C@]1(OC(C)=O)CO[C@@H]1C[C@@H]2O
K-562 leukemia
  TGI: 4.85 µM
MALME-3M melanoma
  TGI: 10.5 µM
OVCAR-3 ovarian
  TGI: 8.03 µM
BT-549 breast
  TGI: > 15.5 µM
OVCAR-4 ovarian
  TGI: > 18.4 µM
MDA-N
  TGI: < 0.0025 µM
RXF 393 renal
  TGI: 0.809 µM
SF-295 CNS
  TGI: 13.3 µM
HL-60(TB) leukemia
  TGI: < 0.0025 µM
MDA-MB-435
  TGI: < 0.0025 µM
NCI-H460 lung
  TGI: > 10.6 µM
SF-539 CNS
  TGI: 0.0105 µM
A498 renal
  TGI: > 13.6 µM
786-0 renal
  TGI: 4.49 µM
TK-10 renal
  TGI: 8.88 µM
MOLT-4 leukemia
  TGI: 3.57 µM
OVCAR-5 ovarian
  TGI: > 10.7 µM

## COc1cc(C)c(/C=C/C(=O)N2C(=O)OC[C@@H]2c2ccccc2)c(C)c1
K-562 leukemia
  TGI: > 100 µM
PC-3 prostate
  TGI: > 100 µM
MALME-3M melanoma
  TGI: > 100 µM
OVCAR-3 ovarian
  TGI: > 100 µM
OVCAR-4 ovarian
  TGI: > 100 µM
MDA-N
  TGI: > 100 µM
RXF 393 renal
  TGI: > 100 µM
SF-295 CNS
  TGI: > 100 µM
HL-60(TB) leukemia
  TGI: > 100 µM
MDA-MB-435
  TGI: > 100 µM
DU-145 prostate
  TGI: > 100 µM
SF-539 CNS
  TGI: > 100 µM
A498 renal
  TGI: > 100 µM
786-0 renal
  TGI: > 100 µM
TK-10 renal
  TGI: > 100 µM
MOLT-4 leukemia
  TGI: 85.8 µM
OVCAR-5 ovarian
  TGI: > 100 µM

## O=C(CC(C(=O)c1ccco1)c1ccsc1)c1ccco1 (centres undefined)
K-562 leukemia
  TGI: > 100 µM
OVCAR-3 ovarian
  TGI: > 100 µM
OVCAR-4 ovarian
  TGI: > 100 µM
MDA-N
  TGI: > 100 µM
RXF 393 renal
  TGI: > 100 µM
SF-295 CNS
  TGI: > 100 µM
HL-60(TB) leukemia
  TGI: > 100 µM
MDA-MB-435
  TGI: > 100 µM
NCI-H460 lung
  TGI: > 100 µM
DU-145 prostate
  TGI: > 100 µM
SF-539 CNS
  TGI: > 100 µM
A498 renal
  TGI: > 100 µM
786-0 renal
  TGI: > 100 µM
TK-10 renal
  TGI: > 100 µM
MOLT-4 leukemia
  TGI: > 100 µM
OVCAR-5 ovarian
  TGI: > 100 µM

## CS/C1=C(\c2ccc(C)cc2)N(c2ccccc2)C(=O)C(=O)N(c2ccccc2)/C(c2ccc(C)cc2)=C(/SC)SS1
K-562 leukemia
  TGI: > 100 µM
PC-3 prostate
  TGI: > 100 µM
MALME-3M melanoma
  TGI: > 100 µM
OVCAR-3 ovarian
  TGI: > 100 µM
OVCAR-4 ovarian
  TGI: > 100 µM
MDA-N
  TGI: > 100 µM
SF-295 CNS
  TGI: > 100 µM
HL-60(TB) leukemia
  TGI: > 100 µM
MDA-MB-435
  TGI: > 100 µM
NCI-H460 lung
  TGI: > 100 µM
DU-145 prostate
  TGI: > 100 µM
SF-539 CNS
  TGI: > 100 µM
A498 renal
  TGI: > 100 µM
786-0 renal
  TGI: > 100 µM
TK-10 renal
  TGI: > 100 µM
MOLT-4 leukemia
  TGI: > 100 µM
OVCAR-5 ovarian
  TGI: > 100 µM

## COc1cc(C2c3cc(O)c(OC)cc3C3OCC2C3CO)ccc1O (centres undefined)
K-562 leukemia
  TGI: > 100 µM
PC-3 prostate
  TGI: > 100 µM
MALME-3M melanoma
  TGI: > 100 µM
OVCAR-3 ovarian
  TGI: > 100 µM
BT-549 breast
  TGI: > 100 µM
OVCAR-4 ovarian
  TGI: > 100 µM
RXF 393 renal
  TGI: > 100 µM
SF-295 CNS
  TGI: > 100 µM
HL-60(TB) leukemia
  TGI: > 100 µM
MDA-MB-435
  TGI: > 100 µM
NCI-H460 lung
  TGI: > 100 µM
DU-145 prostate
  TGI: > 100 µM
SF-539 CNS
  TGI: > 100 µM
A498 renal
  TGI: > 100 µM
786-0 renal
  TGI: > 100 µM
TK-10 renal
  TGI: > 100 µM
MOLT-4 leukemia
  TGI: > 100 µM
OVCAR-5 ovarian
  TGI: > 100 µM

## N=C(N)N1CCC(N2CCOCC2)CC1
K-562 leukemia
  TGI: > 100 µM
MALME-3M melanoma
  TGI: > 100 µM
OVCAR-4 ovarian
  TGI: > 100 µM
RXF 393 renal
  TGI: > 100 µM
SF-295 CNS
  TGI: > 100 µM
HL-60(TB) leukemia
  TGI: > 100 µM
MDA-MB-435
  TGI: > 100 µM
NCI-H460 lung
  TGI: > 100 µM
DU-145 prostate
  TGI: > 100 µM
SF-539 CNS
  TGI: > 100 µM
A498 renal
  TGI: > 100 µM
786-0 renal
  TGI: > 100 µM
TK-10 renal
  TGI: > 100 µM
MOLT-4 leukemia
  TGI: > 100 µM
OVCAR-5 ovarian
  TGI: > 100 µM

## Cc1ccc2ccccc2c1NC1=NCCO1
K-562 leukemia
  TGI: > 100 µM
MALME-3M melanoma
  TGI: > 100 µM
OVCAR-4 ovarian
  TGI: > 100 µM
RXF 393 renal
  TGI: > 100 µM
SF-295 CNS
  TGI: > 100 µM
HL-60(TB) leukemia
  TGI: > 100 µM
MDA-MB-435
  TGI: > 100 µM
NCI-H460 lung
  TGI: > 100 µM
DU-145 prostate
  TGI: > 100 µM
SF-539 CNS
  TGI: > 100 µM
786-0 renal
  TGI: > 100 µM
TK-10 renal
  TGI: > 100 µM
MOLT-4 leukemia
  TGI: > 100 µM
OVCAR-5 ovarian
  TGI: > 100 µM

## CC1(C)O[C@@H]2[C@@H](COC(=O)c3ccccc3)C[C@@H](C#N)[C@@H]2O1
K-562 leukemia
  TGI: > 100 µM
PC-3 prostate
  TGI: > 100 µM
MALME-3M melanoma
  TGI: > 100 µM
OVCAR-3 ovarian
  TGI: > 100 µM
BT-549 breast
  TGI: > 100 µM
OVCAR-4 ovarian
  TGI: > 100 µM
RXF 393 renal
  TGI: > 100 µM
SF-295 CNS
  TGI: > 100 µM
HL-60(TB) leukemia
  TGI: > 100 µM
MDA-MB-435
  TGI: > 100 µM
NCI-H460 lung
  TGI: > 100 µM
DU-145 prostate
  TGI: > 100 µM
SF-539 CNS
  TGI: > 100 µM
A498 renal
  TGI: > 100 µM
786-0 renal
  TGI: > 100 µM
TK-10 renal
  TGI: > 100 µM
MOLT-4 leukemia
  TGI: > 100 µM
OVCAR-5 ovarian
  TGI: > 100 µM

## CNC(=O)c1n[nH]nc1Sc1c([N+](=O)[O-])ncn1C
K-562 leukemia
  TGI: > 100 µM
PC-3 prostate
  TGI: > 100 µM
OVCAR-3 ovarian
  TGI: > 100 µM
BT-549 breast
  TGI: > 100 µM
OVCAR-4 ovarian
  TGI: > 100 µM
RXF 393 renal
  TGI: > 100 µM
SF-295 CNS
  TGI: > 100 µM
MDA-MB-435
  TGI: > 100 µM
NCI-H460 lung
  TGI: > 100 µM
DU-145 prostate
  TGI: > 100 µM
SF-539 CNS
  TGI: > 100 µM
A498 renal
  TGI: > 100 µM
786-0 renal
  TGI: > 100 µM
TK-10 renal
  TGI: > 100 µM
MOLT-4 leukemia
  TGI: > 100 µM
OVCAR-5 ovarian
  TGI: > 100 µM

## CC(C)(C)C(=O)C(C(=O)C(C)(C)C)C(=O)C(C)(C)C
K-562 leukemia
  TGI: > 100 µM
PC-3 prostate
  TGI: > 100 µM
MALME-3M melanoma
  TGI: > 100 µM
OVCAR-3 ovarian
  TGI: > 100 µM
OVCAR-4 ovarian
  TGI: > 100 µM
MDA-N
  TGI: > 100 µM
RXF 393 renal
  TGI: > 100 µM
SF-295 CNS
  TGI: > 100 µM
HL-60(TB) leukemia
  TGI: > 100 µM
MDA-MB-435
  TGI: > 100 µM
NCI-H460 lung
  TGI: > 100 µM
DU-145 prostate
  TGI: > 100 µM
SF-539 CNS
  TGI: > 100 µM
A498 renal
  TGI: > 100 µM
786-0 renal
  TGI: > 100 µM
TK-10 renal
  TGI: > 100 µM
MOLT-4 leukemia
  TGI: > 100 µM
OVCAR-5 ovarian
  TGI: > 100 µM
